Patent US10226482B2, “Copolymer and method for treatment of bacterial infection” (RECCE LIMITED, priority 2014, dated 2019)
Where two headings read alike, the source gives them in different places.

Legend:
P. aeruginosa = assay type: cell-based; details: with broth
Description: Three test organisms—E. coli, S. aureus and P. aeruginosa—were respectively inoculated to achieve an approximate concentration 10^6 cfu/mL in the test solutions; the test solutions each comprised 19 g sterile distilled water, 1 mL trypticase soy broth and copolymer (Example 1; 383 mg; 5.4% w/w on acrolein added) or Comparative Example 1; 303 mg; 6.7% w/w solution on acrolein added). The inoculated test solutions, pH 6.5 to 7.0 were then incubated at 37° C. for sufficient time-periods such that approximately 10^2-10^3 cfu/mL (or 99-99.9% of organisms) killed was achieved.
(§1) A 1 mL aliquot was removed from each respective solution and mixed for one minute with a 1 mL aliquot of Trypticase Soy Broth, then 8 mL of sterile water was added and mixed. Aliquots (1 mL) were then removed from each solution and lawn-inoculated by flooding onto Horse Blood Agar plates for 24-48 hours incubation at 37° C. Visual counts of bacterial growth on the plates were performed.
(§2) Successive generations of E. coli, S. aureus or P. aeruginosa respectively were cultivated via their selection through repeated exposure to a copolymer or Amoxicillin; Organisms surviving treatment were harvested for another cycle of treatment—this process being repeated up to 25 times.

E. coli = assay type: cell-based
Description: (§3) […] The inoculated test solutions, pH 6.5 to 7.0 were then incubated at 37° C. for sufficient time-periods such that approximately 10^2-10^3 cfu/mL (or 99-99.9% of organisms) killed was achieved.
as §1, §2

S. aureus = assay type: cell-based
Description: as §3, §1, §2

MRSA (S. aureus USA300) = assay: Example 9: curative treatment by tail injection of infected mice; assay type: in vivo, BALB/c mice; details: 1 to 7 scale (1 alert and healthy); tail injection 24 hours after infection; Example 1 132 mg/Kg, Comparative Example 1 167 mg/Kg, Oxacillin 500 mg/Kg
Description: All experiments were prior-audited, and then supervised to comply with international standards to ensure humane treatment of the animals. All experiments were performed in independent laboratories. In particular, all experiments in Examples 6, 7 and 8 were done in USA within pre-designed protocols specifically to research sepsis and bacteremia; protocols were “blinded” of the identity of test-solutions, to both the supervisor and assistants. All infections were in 100 μL, designed to result in approximately 10^7 cfu/mL infection of mouse-blood; mice were type BALB/c—ten per group in each experiment. Mice were assessed by either sacrifice followed by cfu/g count of bacteria within organ(s), or within a 1 to 7 scale of Health Score, including (1; alert and healthy) to (5; sick and very ruffled coat; euthanized) to (7; deceased). The protocols are tabulated, and follow.
Four groups of each 10 mice were infected with S. aureus superbug (S. aureus USA300), and 24 hours afterwards each group treated curatively with respectively: The copolymer of Example 1 (Ex 1) MW 500 at 132 mg/Kg of mouse; copolymer MW 2500 Comparative Example 1 (CE 1) at 167 mg/Kg of mouse; positive control Oxacillin, 500 mg/Kg and negative control saline. FIG. 5 is a chart showing the number of mice culled due to morbidity or mortality.

[1] = 0.35% w/w solution of Amoxicillin

Compound | Number of generations of microbes to resistance (P. aeruginosa) | generation after which bacterial resistance resulted (E. coli; [1]) | Number of generations of microbes to resistance (E. coli; with broth) | Number of generations of microbes to resistance (E. coli; without broth) | generation after which bacterial resistance resulted (S. aureus; [1]) | Number of generations of microbes to resistance (S. aureus; with broth) | Number of generations of microbes to resistance (S. aureus; without broth) | Health Score of surviving mice (MRSA (S. aureus USA300))
CC1(C)S[C@@H]2[C@H](NC(=O)[C@H](N)c3ccc(O)cc3)C(=O)N2[C@H]1C(=O)O [Amoxicillin] | 6 | second | 8 | 2 | eighth | 10 | 8 | 
Cc1onc(-c2ccccc2)c1C(=O)N[C@@H]1C(=O)N2[C@@H]1SC(C)(C)[C@@H]2C(=O)O [Oxacillin] |  |  |  |  |  |  |  | 2.5
